Laboratory results from patent US20150045425A1, “PELTATIN AND METABOLIC DISORDERS” (NESTEC S.A., priority 2012, published 2015).

Tested on: HeLa cells
Assay: Cellular toxicity, standard method, compared to untreated cells
Assay type: cell-based, human
Details: up to highest dose used
Procedure: The AC50 (upper part of the insert) and the maximum % activation (lower part of the insert) are given. Cellular toxicity was also assessed with standard method compared to untreated cells and shown in % of toxicity.
An edible plant fraction library was tested for PPARs agonist activity and toxicity. Then relevant plant fractions were further analyzed and bioactive(s) characterized and validated with the same hPPARa, hPPARg or hPPARd reporter bioassays. The reporter bioassay we used in order to identify anti-inflammatory plant properties targeted activation of human PPARs in human HeLa cells (as described in the FIG. 1). All isolated bioactives were tested in a dose response manner in duplicate. Assays were repeated 3-4 times. Shown are mean values obtained. Therefore specificity (for all the three known human PPAR receptors namely PPARa, PPARd and PPARg) and efficacy (full agonist i.e. % maximal activity >100% or partial agonist i.e. % maximal activity <100%) were tested (FIG. 2-4).

Measured: Cellular toxicity (% of toxicity)

COc1cc([C@@H]2c3cc4c(c(O)c3C[C@H]3COC(=O)[C@@H]32)OCO4)cc(OC)c1OC [beta-Peltatin]
no toxicity was observed: FIG. 2, PPARa activation dose-response | FIG. 3, PPARg activation dose-response | FIG. 4, PPARd activation dose-response
